Laboratory results as given in patent publication US20250339569A1, “CARBONIC ANHYDRASE IX LIGANDS” (priority 2021, published 2025).
Starred links: 1 amine or outer side, 2 acyl side, 3 side chain; linkers in the order of their positions; H or OH if unused. Positions of bridges follow the written chain, without caps; N, C: chain ends. Non-standard residues stand in square brackets, D forms with d. Residues, ends and D or L forms follow the SMILES beside them. Groups on a side chain read outwards from the residue. No end group written: not given here. *: point of attachment. NH(1-deoxy-D-glucityl) = OC[C@@H](O)[C@@H](O)[C@H](O)[C@@H](O)CN*; DOTA = O=C(O)CN1CCN(CC(=O)O)CCN(CC(=O)*)CCN(CC(=O)O)CC1; NGly(3-aminopropyl) = O=C(CN(CCCN[*:3])[*:1])[*:2]; Pyridine(3,5-bisCH2) = c1ncc(C[*:2])cc1C[*:1]; Trp(7-aza) = N[C@@H](Cc1c[nH]c2ncccc12)C(=O)O; Phe(4-NH2) = Nc1ccc(C[C@H](N)C(=O)O)cc1; mXylylene = c1cc(C[*:1])cc(C[*:2])c1; Trx = NC[C@H]1CC[C@H](C(=O)O)CC1; X2 = O=C(CN1CCC(N[*:1])CC1)[*:2]; 4Amb = NCc1ccc(C(=O)O)cc1; Orn = NCCC[C@H](N)C(=O)O; APAc = not defined here; Dab = NCC[C@H](N)C(=O)O; Fluoroacetyl = O=C(CF)*; AEEA = NCCOCCOCC(=O)O; Sar = CNCC(=O)O

Each compound was assayed against T1, CAIX-expressing human HT-29 colorectal cancer cells (Homo sapiens, UniProt Q16790) (assay: FACS binding assay (IC50 determination, competition with tracer 3BP-2776 or 3BP-4149)). Settings: not given.
T1 construct: CAIX-expressing human HT-29 colorectal cancer cells; host or cells: HT-29 human colorectal cancer cells
Summary of the method: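 HT-29 cells in FACS buffer (PBS, 1% FCS) at 500.000 cells/ml were exposed to compounds competing with a labelled tracer, with biotinylated compounds detected by 1 μg/mL APC-streptavidin for 30 min on ice. APC/Cy5 median fluorescence was read by flow cytometry and IC50 derived by 4PL fit.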

| Compound | IC50 |
| --- | --- |
| CC(C)C[C@@H]1NC(=O)[C@H](Cc2ccc(NC(=O)CF)cc2)NC(=O)[C@H](CC(=O)O)NC(=O)[C@H]2CCCN2C(=O)[C@H](CCC(=O)O)NC(=O)[C@@H](NC(=O)[C@H](Cc2ccc(O)cc2)NC(=O)[C@@H](NC(=O)CN2CCC(NC(=O)CN3CCN(CC(=O)O)CCN(CC(=O)O)CCN(CC(=O)O)CC3)CC2)C(C)C)CSCc2cccc(c2)CSC[C@@H](C(N)=O)NC(=O)[C@H](CO)NC(=O)[C@H](Cc2c[nH]c3ccccc23)NC(=O)[C@H]([C@@H](C)O)NC1=O [3BP-4358] ({DOTA}-[X2]VYCE[dP]D[Phe(4-NH2)](Fluoroacetyl)LTWSC-NH2; linker 4-13 via mXylylene) | 100 to 794 nM |

Same assay, conditions: FACS binding assay, HT-29 cells, competition with tracer 3BP-2776 (10 nM, biotin-labeled), 4° C., 1 hour

| pIC50 category (activity) | Compound |
| --- | --- |
| B (pIC50 values between 7.1 and 8.0) | 3BP-4252 ({DOTA-APAc}-VYCEG[NGly(3-aminopropyl)]WLEWSC-NH2; linker 3-12 via mXylylene; lactam 6-9; reading uncertain) |
| A (pIC50 values >8.0) | 3BP-4178 ([dP]PVYCE[dP]DWLTWSC; linker 5-14 via mXylylene; not fully specified (bridges)) |

Same assay, conditions: FACS binding assay, HT-29 cells, competition with tracer 3BP-2776 (10 nM, biotin-labeled), 4° C., 1 hour; read-out: pIC50 category (activity) (converted)

| IC50 | Compound |
| --- | --- |
| 100 to 794 nM | CC(=O)N[C@H](C(=O)N[C@@H](Cc1ccc(O)cc1)C(=O)N[C@H]1CSCc2cccc(c2)CSC[C@@H](C(N)=O)NC(=O)[C@H](CO)NC(=O)[C@H](Cc2c[nH]c3ccccc23)NC(=O)[C@@H]2CC(=O)NCC[C@H](NC(=O)[C@H]3CCCN3C(=O)[C@H](CCC(=O)O)NC1=O)C(=O)N[C@@H](Cc1c[nH]c3ccccc13)C(=O)N[C@@H](CC(C)C)C(=O)N2)C(C)C [3BP-4050] (Ac-VYCE[dP][Dab]WLDWSC-NH2; linker 3-12 via mXylylene; lactam 6-9) |
| 10 to 79.4 nM | CC(=O)N[C@H](C(=O)N[C@@H](Cc1ccc(O)cc1)C(=O)N[C@H]1CSCc2cccc(c2)CSC[C@@H](C(N)=O)NC(=O)[C@H](CO)NC(=O)[C@H](Cc2c[nH]c3ccccc23)NC(=O)[C@@H]2CCC(=O)NCCC[C@H](NC(=O)[C@H]3CCCN3C(=O)[C@H](CCC(=O)O)NC1=O)C(=O)N[C@@H](Cc1c[nH]c3ccccc13)C(=O)N[C@@H](CC(C)C)C(=O)N2)C(C)C [3BP-3958] (Ac-VYCE[dP][Orn]WLEWSC-NH2; linker 3-12 via mXylylene; lactam 6-9) |
| < 10 nM | CC(C)C[C@@H]1NC(=O)[C@H](Cc2c[nH]c3ccccc23)NC(=O)[C@H](CC(=O)O)NC(=O)[C@H]2CCCN2C(=O)[C@H](CCC(=O)NC[C@H](O)[C@@H](O)[C@H](O)[C@H](O)CO)NC(=O)[C@@H](NC(=O)[C@H](Cc2ccc(O)cc2)NC(=O)[C@@H](NC(=O)CN2CCC(NC(=O)CN3CCN(CC(=O)O)CCN(CC(=O)O)CCN(CC(=O)O)CC3)CC2)C(C)C)CSCc2cccc(c2)CSC[C@@H](C(N)=O)NC(=O)[C@H](CO)NC(=O)[C@H](Cc2c[nH]c3ccccc23)NC(=O)[C@H]([C@@H](C)O)NC1=O [3BP-4113] ({DOTA}-[X2]VYCE(NH(1-deoxy-D-glucityl))[dP]DWLTWSC-NH2; linker 4-13 via mXylylene) |
| < 10 nM | CC(C)C[C@@H]1NC(=O)[C@H](Cc2c[nH]c3ccccc23)NC(=O)[C@H](CC(=O)O)NC(=O)[C@H]2CCCN2C(=O)[C@H](CCC(=O)O)NC(=O)[C@@H](NC(=O)[C@H](Cc2ccc(O)cc2)NC(=O)[C@@H](NC(=O)CN2CCC(NC(=O)CN3CCN(CC(=O)O)CCN(CC(=O)O)CCN(CC(=O)O)CC3)CC2)C(C)C)CSCc2cccc(c2)CSC[C@@H](C(N)=O)NC(=O)[C@H](CO)NC(=O)[C@H](Cc2c[nH]c3ncccc23)NC(=O)[C@H]([C@@H](C)O)NC1=O [3BP-4159] ({DOTA}-[X2]VYCE[dP]DWLT[Trp(7-aza)]SC-NH2; linker 4-13 via mXylylene) |
| 100 to 794 nM | CC(C)C[C@@H]1NC(=O)[C@H](Cc2c[nH]c3ccccc23)NC(=O)[C@H](CC(=O)O)NC(=O)[C@H]2CCCN2C(=O)[C@H](CCC(=O)O)NC(=O)[C@@H](NC(=O)[C@H](Cc2ccc(O)cc2)NC(=O)[C@@H](NC(=O)CN2CCC(NC(=O)CN3CCN(CC(=O)O)CCN(CC(=O)O)CCN(CC(=O)O)CC3)CC2)C(C)C)CSCc2cncc(c2)CSC[C@@H](C(N)=O)NC(=O)[C@H](CO)NC(=O)[C@H](Cc2c[nH]c3ccccc23)NC(=O)[C@H]([C@@H](C)O)NC1=O [3BP-4141] ({DOTA}-[X2]VYCE[dP]DWLTWSC-NH2; linker 4-13 via Pyridine(3,5-bisCH2)) |

Same assay, conditions: FACS binding assay, HT-29 cells, competition with tracer 3BP-4149 (3 nM, Cy5-labeled), 4° C., 1 hour; read-out: pIC50 category (activity) (converted)

| IC50 | Compound |
| --- | --- |
| 10 to 79.4 nM | CC(C)C[C@@H]1NC(=O)[C@H](Cc2c[nH]c3ccccc23)NC(=O)[C@H](CCC(=O)NCc2ccc(C(N)=O)cc2)NC(=O)[C@H]2CCCN2C(=O)[C@H](CCC(=O)O)NC(=O)[C@@H](NC(=O)[C@H](Cc2ccc(O)cc2)NC(=O)[C@@H](NC(=O)CN2CCC(NC(=O)CN3CCN(CC(=O)O)CCN(CC(=O)O)CCN(CC(=O)O)CC3)CC2)C(C)C)CSCc2cccc(c2)CSC[C@@H](C(N)=O)NC(=O)[C@H](CO)NC(=O)[C@H](Cc2c[nH]c3ccccc23)NC(=O)[C@H]([C@@H](C)O)NC1=O [3BP-4345] ({DOTA}-[X2]VYCE[dP]E([4Amb-NH2])WLTWSC-NH2; linker 4-13 via mXylylene) |

Same assay, conditions: FACS competition on HT-29 cells, Tracer ID 3BP-2776 (10 nM, biotin-labeled), 4° C., 1 hour; read-out: pIC50 category (activity) (converted)

| IC50 | Compound |
| --- | --- |
| < 10 nM | CC(C)C[C@@H]1NC(=O)[C@H](Cc2c[nH]c3ccccc23)NC(=O)[C@H](CC(=O)O)NC(=O)[C@H]2CCCN2C(=O)[C@H](CCC(=O)O)NC(=O)[C@@H](NC(=O)[C@H](Cc2ccc(O)cc2)NC(=O)[C@@H](NC(=O)[C@H]2CC[C@H](CNC(=O)CN3CCN(CC(=O)O)CCN(CC(=O)O)CCN(CC(=O)O)CC3)CC2)C(C)C)CSCc2cccc(c2)CSC[C@@H](C(N)=O)NC(=O)[C@H](C)NC(=O)[C@H](Cc2c[nH]c3ccccc23)NC(=O)[C@H]([C@@H](C)O)NC1=O [3BP-3430] ({DOTA-Trx}-VYCE[dP]DWLTWAC-NH2; linker 3-12 via mXylylene) |
| < 10 nM | CC(=O)N[C@H](C(=O)N[C@@H](Cc1ccc(O)cc1)C(=O)N[C@H]1CSCc2cccc(c2)CSC[C@@H](C(=O)NCCOCCOCC(=O)N[C@@H](CCCCNC(=O)CN2CCN(CC(=O)O)CCN(CC(=O)O)CCN(CC(=O)O)CC2)C(N)=O)NC(=O)[C@H](C)NC(=O)[C@H](Cc2c[nH]c3ccccc23)NC(=O)[C@H]([C@@H](C)O)NC(=O)[C@H](CC(C)C)NC(=O)[C@H](Cc2c[nH]c3ccccc23)NC(=O)[C@H](CC(=O)O)NC(=O)[C@H]2CCCN2C(=O)[C@H](CCC(=O)O)NC1=O)C(C)C [3BP-3474, Ac-Val-Tyr-[Cys(3MeBn)-Glu-pro-Asp-Trp-Leu-Thr-Trp-Ala-Cys]-O2Oc-Lys(DOTA)-NH2] (Ac-VYCE[dP]DWLTWAC[AEEA]K(DOTA)-NH2; linker 3-12 via mXylylene) |
| 100 to 794 nM | CC(=O)N[C@H](C(=O)N[C@@H](Cc1ccc(O)cc1)C(=O)N[C@H]1CSCc2cccc(c2)CSC[C@@H](C(N)=O)NC(=O)[C@H](CO)NC(=O)[C@H](Cc2c[nH]c3ccccc23)NC(=O)[C@@H]2CCCCNC(=O)CC[C@H](NC1=O)C(=O)N1CCC[C@@H]1C(=O)N[C@@H](CC(=O)O)C(=O)N[C@@H](Cc1c[nH]c3ccccc13)C(=O)N[C@@H](CC(C)C)C(=O)N2)C(C)C [3BP-3899] (Ac-VYCE[dP]DWLKWSC-NH2; linker 3-12 via mXylylene; lactam 4-9) |
| 10 to 79.4 nM | CC(C)C[C@@H]1NC(=O)[C@H](Cc2c[nH]c3ccccc23)NC(=O)[C@@H]2CCCCNC(=O)CC[C@H](NC1=O)C(=O)N[C@@H](Cc1c[nH]c3ccccc13)C(=O)N[C@@H](CO)C(=O)N[C@H](C(N)=O)CSCc1cccc(c1)CSC[C@H](NC(=O)[C@H](Cc1ccc(O)cc1)NC(=O)[C@@H](NC(=O)CN1CCC(NC(=O)CN3CCN(CC(=O)O)CCN(CC(=O)O)CCN(CC(=O)O)CC3)CC1)C(C)C)C(=O)N[C@@H](CCC(=O)O)C(=O)N1CCC[C@@H]1C(=O)N2 [3BP-3933] ({DOTA}-[X2]VYCE[dP]KWLEWSC-NH2; linker 4-13 via mXylylene; lactam 7-10) |
| 100 to 794 nM | CSCC[C@H](NC(C)=O)C(=O)N[C@H](C(=O)N[C@@H](Cc1ccc(O)cc1)C(=O)N[C@H]1CSCc2cccc(c2)CSC[C@@H](C(N)=O)NC(=O)[C@H](CCC(N)=O)NC(=O)[C@H](Cc2c[nH]c3ccccc23)NC(=O)[C@H]([C@@H](C)O)NC(=O)[C@H](CC(C)C)NC(=O)[C@H](Cc2c[nH]c3ccccc23)NC(=O)[C@H](CC(=O)O)NC(=O)CNC(=O)[C@H](CCC(=O)O)NC1=O)C(C)C [3BP-2836] (Ac-MVYCEGDWLTWQC-NH2; linker 4-13 via mXylylene) |
| < 10 nM | CC(=O)N[C@H](C(=O)N[C@@H](Cc1ccc(O)cc1)C(=O)N[C@H]1CSCc2cccc(c2)CSC[C@@H](C(N)=O)NC(=O)[C@H](CCC(N)=O)NC(=O)[C@H](Cc2c[nH]c3ccccc23)NC(=O)CNC(=O)[C@H](CC(C)C)NC(=O)[C@H](Cc2c[nH]c3ccccc23)NC(=O)[C@H](CC(=O)O)NC(=O)CN(C)C(=O)[C@H](CCC(=O)O)NC1=O)C(C)C [3BP-3307] (Ac-VYCE[Sar]DWLGWQC-NH2; linker 3-12 via mXylylene) |
| < 10 nM | CC(=O)N[C@H](C(=O)N[C@@H](Cc1ccc(O)cc1)C(=O)N[C@H]1CSCc2cccc(c2)CSC[C@@H](C(N)=O)NC(=O)CNC(=O)[C@H](Cc2c[nH]c3ccccc23)NC(=O)[C@H]([C@@H](C)O)NC(=O)[C@H](CC(C)C)NC(=O)[C@H](Cc2c[nH]c3ccccc23)NC(=O)[C@H](CC(=O)O)NC(=O)CN(C)C(=O)[C@H](CCC(=O)O)NC1=O)C(C)C [3BP-3304] (Ac-VYCE[Sar]DWLTWGC-NH2; linker 3-12 via mXylylene) |
